Laboratory results from patent US20240360194A1, “New Peptides as Potent and Selective GIP Receptor Agonists” (Sanofi, priority 2021, published 2024).
pEC50, pIC50: −log10 of the molar value. Like-named read-outs stand apart in the source and are kept apart here. Numbered stars: 1 amine (or outer) side, 2 acyl side, 3 side chain; on linkers, the order of the positions; unused ones are H or OH. Square brackets hold non-standard residues; d marks the D form. Side chains are listed from the residue outwards. Peptide text beside a SMILES is read from it. * marks the point of attachment. C18 diacid = O=C(O)CCCCCCCCCCCCCCCCC(=O)*; γGlu = O=C(O)[C@H](CCC(=O)[*:2])N[*:1]; AEEA = NCCOCCOCC(=O)O; Aib = CC(C)(N)C(=O)O

Key:
[1] = target: human GLP-1 receptor (hGLP-1R) (Homo sapiens, UniProt P43220); assay: In vitro cellular cAMP assay for GLP-1 receptor efficacy (HEK-293 cell line over-expressing receptor); format: cell-based; conditions: HEK-293, 0.1% BSA
human GIP receptor = target: T1, human GIP receptor (Homo sapiens, UniProt P48546); assay: In vitro cellular cAMP assay for GIP receptor efficacy (human adipocytes); format: cell-based; conditions: for pEC50: read-out: hGIPR EC50; for Emax: read-out: hGIPR Emax
T1 construct: human adipocytes endogenously expressing the human GIP receptor; host or cells: human preadipocytes (Lonza) differentiated to adipocytes
T1 sequence (P48546 22-466): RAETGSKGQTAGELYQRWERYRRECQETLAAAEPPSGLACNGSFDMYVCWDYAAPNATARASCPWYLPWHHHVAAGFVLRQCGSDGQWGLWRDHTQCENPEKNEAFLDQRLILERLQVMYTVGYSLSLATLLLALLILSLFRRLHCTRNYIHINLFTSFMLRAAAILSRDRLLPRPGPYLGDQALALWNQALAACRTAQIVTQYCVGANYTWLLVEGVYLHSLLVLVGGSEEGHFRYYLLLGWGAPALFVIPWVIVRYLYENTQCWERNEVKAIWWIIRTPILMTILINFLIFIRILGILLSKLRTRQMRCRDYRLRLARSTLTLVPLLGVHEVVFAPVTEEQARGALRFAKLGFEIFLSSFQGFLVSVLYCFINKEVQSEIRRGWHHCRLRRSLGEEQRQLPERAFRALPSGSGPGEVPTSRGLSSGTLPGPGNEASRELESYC
Outline: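 Human preadipocytes expanded, then differentiated 6 days (insulin, dexamethasone, PPARγ agonist, 200 μM IBMX, L-thyroxine) before plating at 5000 cells/well. Test compound applied 30 min at room temperature; cAMP measured by HTRF after 1 h with lysis-buffer reagents, read as 665/620 nm fluorescence ratio.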

[2] = target: T2, human GIP receptor (hGIPR) (Homo sapiens, UniProt P48546); assay: Binding assay, displacement of [125I]GIP from HEK-293 membranes over-expressing GIPR (SPA); conditions: [125I]GIP displacement
T2 sequence (P48546 22-466): T1 sequence (P48546 22-466)
Outline: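 Membranes from HEK-293 cells over-expressing human GIPR or GLP-1R, isolated by homogenising, sonicating and ultracentrifuging at 100000×g into HEPES/EDTA/NaCl buffer with protease inhibitors, were used for binding.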

[3] = Pharmacokinetic evaluation in rats; format: in vivo; conditions: male, SD, rat
Procedure: Compounds were administered in a suitable buffer system, e.g. PBS buffer solution at pH7.4 or DPBS solution at concentrations of 0.05, 0.1, 0.5 or 1 mg/ml depending on dose, species and administration volume. Male SD rats were dosed 0.25 mg/kg, 0.5 mg/kg or 1 mg/kg intravenously (i.v.) or subcutaneously (s.c.). Blood samples were collected after 0.08, 0.25, 0.5, 1, 2, 4, 8, 24, 32, and 48 h post i.v. application and 0.25, 0.5, 1, 2, 4, 8, 24, 32, and 48 h post s.c. application, respectively. Plasma samples were analysed after protein precipitation via liquid chromatography mass spectrometry (LC/MS). PK parameters and half-life were calculated using Phoenix-WinNonlin 8.1 using a non-compartmental model and linear trapezoidal interpolation calculation. Pharmacokinetic profiles were determined as described in Methods.

Chain of human GLP-1 receptor (hGLP-1R) (P43220 24-463): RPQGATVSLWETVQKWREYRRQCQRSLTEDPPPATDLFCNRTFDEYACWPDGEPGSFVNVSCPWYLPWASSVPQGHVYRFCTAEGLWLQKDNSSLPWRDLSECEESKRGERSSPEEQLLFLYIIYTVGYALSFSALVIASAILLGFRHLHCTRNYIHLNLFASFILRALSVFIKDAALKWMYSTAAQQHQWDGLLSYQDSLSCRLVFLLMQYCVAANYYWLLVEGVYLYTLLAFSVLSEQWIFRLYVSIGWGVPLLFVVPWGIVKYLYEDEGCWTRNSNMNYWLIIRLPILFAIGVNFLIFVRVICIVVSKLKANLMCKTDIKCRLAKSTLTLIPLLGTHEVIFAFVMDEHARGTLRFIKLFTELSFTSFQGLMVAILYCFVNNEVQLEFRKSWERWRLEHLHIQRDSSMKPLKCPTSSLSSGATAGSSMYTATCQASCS

pEC50 (human GIP receptor)	AUC(0-t) ([3]; plasma, iv, rats, 0.25 mg/kg i.v., read-out: AUClast) [ng·h/mL]	clearance ([3]; plasma, iv, rats, 0.25 mg/kg i.v., read-out: Cl (converted)) [mL/min/kg]	Cmax ([3]; plasma, iv, rats, 0.25 mg/kg i.v., read-out: Cmax) [ng/mL]	half-life ([3]; plasma, iv, rats, 0.25 mg/kg i.v., read-out: T1/2 (converted)) [h]	AUC(0-t) ([3]; plasma, sc, rats, 0.5 mg/kg s.c., read-out: AUClast) [ng·h/mL]	Cmax ([3]; plasma, sc, rats, 0.5 mg/kg s.c., read-out: Cmax) [ng/mL]	bioavailability ([3]; plasma, sc, rats, 0.5 mg/kg s.c., read-out: F) [%]	half-life ([3]; plasma, sc, rats, 0.5 mg/kg s.c., read-out: T1/2 (converted)) [h]	Compound	pEC50 [1]	Emax (human GIP receptor) [%]	pIC50 [2]	AUC(0-t) ([3]; in vivo, iv, 0.25 mg/kg) [ng·h/mL]	Cmax ([3]; in vivo, iv, 0.25 mg/kg) [ng/mL]	clearance ([3]; in vivo, iv, 0.25 mg/kg) [mL/min/kg]	half-life ([3]; in vivo, iv, 0.25 mg/kg) [h]	AUC(0-t) ([3]; in vivo, sc, 0.5 mg/kg) [ng·h/mL]	Cmax ([3]; in vivo, sc, 0.5 mg/kg) [ng/mL]	bioavailability ([3]; in vivo, sc, 0.5 mg/kg) [%]	half-life ([3]; in vivo, sc, 0.5 mg/kg) [h]
9.00	35700	0.112	4620	11.2	69100	2880	98	9.7	CC[C@H](C)[C@H](NC(=O)[C@H](CCCNC(=N)N)NC(=O)[C@H](CC(=O)O)NC(=O)[C@H](CCCCNC(=O)COCCOCCNC(=O)COCCOCCNC(=O)CC[C@H](NC(=O)CCCCCCCCCCCCCCCCC(=O)O)C(=O)O)NC(=O)C(C)(C)NC(=O)[C@@H](NC(=O)[C@H](CO)NC(=O)[C@H](CC(C)C)NC(=O)[C@H](CC(=O)O)NC(=O)[C@H](CO)NC(=O)[C@@H](NC(=O)[C@H](Cc1ccccc1)NC(=O)[C@@H](NC(=O)CNC(=O)[C@H](CCC(=O)O)NC(=O)C(C)(C)NC(=O)[C@@H](N)Cc1ccc(O)cc1)[C@@H](C)O)[C@@H](C)CC)[C@@H](C)CC)C(=O)N[C@@H](Cc1c[nH]cn1)C(=O)N[C@@H](CCC(N)=O)C(=O)NC(C)(C)C(=O)N[C@@H](CCC(=O)O)C(=O)N[C@@H](Cc1ccccc1)C(=O)N[C@H](C(=O)N[C@@H](CCC(=O)O)C(=O)N[C@@H](Cc1c[nH]c2ccccc12)C(=O)N[C@@H](CC(C)C)C(=O)N[C@@H](CC(C)C)C(=O)N[C@@H](C)C(=O)N[C@@H](CCC(N)=O)C(=O)N[C@@H](CCCNC(=N)N)C(=O)NCC(N)=O)[C@@H](C)CC [SEQ ID NO: 6, H2N-Y-Aib-E-G-T-F-I-S-D-L-S-I-Aib-K[{AEEA}2-gGlu-C18OH]-D-R-I-H-Q-Aib-E-F-I-E-W-L-L-A-Q-R-G-NH2]	< 8.00	121	9.30								
9.22									CC[C@H](C)[C@H](NC(=O)[C@H](CCCNC(=N)N)NC(=O)[C@H](CC(=O)O)NC(=O)[C@H](CCCCNC(=O)COCCOCCNC(=O)COCCOCCNC(=O)CC[C@H](NC(=O)CCCCCCCCCCCCCCCCC(=O)O)C(=O)O)NC(=O)C(C)(C)NC(=O)[C@@H](NC(=O)[C@H](CO)NC(=O)[C@H](CC(C)C)NC(=O)[C@H](CC(=O)O)NC(=O)[C@H](CO)NC(=O)[C@@H](NC(=O)[C@@](C)(CC)NC(=O)[C@@H](NC(=O)CNC(=O)[C@H](CCC(=O)O)NC(=O)C(C)(C)NC(=O)[C@@H](N)Cc1ccc(O)cc1)[C@@H](C)O)[C@@H](C)CC)[C@@H](C)CC)C(=O)N[C@@H](Cc1c[nH]cn1)C(=O)N[C@@H](CCC(N)=O)C(=O)NC(C)(C)C(=O)N[C@@H](CCC(=O)O)C(=O)N[C@@H](Cc1ccccc1)C(=O)N[C@H](C(=O)N[C@@H](CCC(=O)O)C(=O)N[C@@H](Cc1c[nH]c2ccccc12)C(=O)N[C@@H](CC(C)C)C(=O)N[C@@H](CC(C)C)C(=O)N[C@@H](C)C(=O)N[C@@H](CCC(N)=O)C(=O)N[C@@H](CCCNC(=N)N)C(=O)NCC(N)=O)[C@@H](C)CC [SEQ ID NO: 16, H2N-Y-Aib-E-G-T-Iva-I-S-D-L-S-I-Aib-K[{AEEA}2-gGlu-C18OH]-D-R-I-H-Q-Aib-E-F-I-E-W-L-L-A-Q-R-G-NH2]	< 8.00	91	10.00	41500	7050	0.0957	11.5	43900	1720	55	10.8
									CC[C@H](C)[C@H](NC(=O)[C@H](CCCNC(=N)N)NC(=O)[C@H](CCC(=O)O)NC(=O)[C@H](CCCCNC(=O)COCCOCCNC(=O)COCCOCCNC(=O)CC[C@H](NC(=O)CCCCCCCCCCCCCCCCC(=O)O)C(=O)O)NC(=O)C(C)(C)NC(=O)[C@@H](NC(=O)[C@H](CO)NC(=O)[C@H](CC(C)C)NC(=O)[C@H](CC(=O)O)NC(=O)[C@H](CO)NC(=O)[C@@H](NC(=O)[C@H](Cc1ccccc1)NC(=O)[C@@H](NC(=O)CNC(=O)[C@H](CCC(=O)O)NC(=O)C(C)(C)NC(=O)[C@@H](N)Cc1ccc(O)cc1)[C@@H](C)O)[C@@H](C)CC)[C@@H](C)CC)C(=O)N[C@@H](Cc1c[nH]cn1)C(=O)N[C@@H](CCC(N)=O)C(=O)NC(C)(C)C(=O)N[C@@H](CCC(=O)O)C(=O)N[C@@H](Cc1ccccc1)C(=O)N[C@H](C(=O)N[C@@H](CCC(=O)O)C(=O)N[C@@H](Cc1c[nH]c2ccccc12)C(=O)N[C@@H](CC(C)C)C(=O)N[C@@H](CC(C)C)C(=O)N[C@@H](C)C(=O)N[C@@H](CCC(N)=O)C(=O)NCC(=O)N1CCC[C@H]1C(=O)N[C@@H](CO)C(=O)N[C@@H](CO)C(=O)NCC(=O)N[C@@H](C)C(=O)N1CCC[C@H]1C(=O)N1CCC[C@H]1C(=O)N1CCC[C@H]1C(=O)N[C@@H](CO)C(N)=O)[C@@H](C)CC [SEQ ID NO: 21, H2N-Y-Aib-E-G-T-F-I-S-D-L-S-I-Aib-K[{AEEA}2-gGlu-C18OH]-E-R-I-H-Q-Aib-E-F-I-E-W-L-L-A-Q-G-P-S-S-G-A-P-P-P-S-NH2] (H-Y[Aib]EGTFISDLSI[Aib]K([AEEA-AEEA-γGlu-C18 diacid])ERIHQ[Aib]EFIEWLLAQGPSSGAPPPS-NH2)	< 8.00	120	9.10	25800	1020	0.151	12.9	33900	1020	68	12.1

Compound	pEC50 (human GIP receptor)	AUC(0-t) ([3]; plasma, iv, rats, 0.25 mg/kg i.v., read-out: AUClast) [ng·h/mL]	clearance ([3]; plasma, iv, rats, 0.25 mg/kg i.v., read-out: Cl (converted)) [mL/min/kg]	Cmax ([3]; plasma, iv, rats, 0.25 mg/kg i.v., read-out: Cmax) [ng/mL]	half-life ([3]; plasma, iv, rats, 0.25 mg/kg i.v., read-out: T1/2 (converted)) [h]	AUC(0-t) ([3]; plasma, sc, rats, 0.5 mg/kg s.c., read-out: AUClast) [ng·h/mL]	Cmax ([3]; plasma, sc, rats, 0.5 mg/kg s.c., read-out: Cmax) [ng/mL]	bioavailability ([3]; plasma, sc, rats, 0.5 mg/kg s.c., read-out: F) [%]	half-life ([3]; plasma, sc, rats, 0.5 mg/kg s.c., read-out: T1/2 (converted)) [h]	pEC50 [1]	Emax (human GIP receptor) [%]	pIC50 [2]	AUC(0-t) ([3]; in vivo, iv, 0.25 mg/kg) [ng·h/mL]	Cmax ([3]; in vivo, iv, 0.25 mg/kg) [ng/mL]	clearance ([3]; in vivo, iv, 0.25 mg/kg) [mL/min/kg]	half-life ([3]; in vivo, iv, 0.25 mg/kg) [h]	AUC(0-t) ([3]; in vivo, sc, 0.5 mg/kg) [ng·h/mL]	Cmax ([3]; in vivo, sc, 0.5 mg/kg) [ng/mL]	bioavailability ([3]; in vivo, sc, 0.5 mg/kg) [%]	half-life ([3]; in vivo, sc, 0.5 mg/kg) [h]
CC[C@H](C)[C@H](NC(=O)[C@H](CCCNC(=N)N)NC(=O)[C@H](CC(=O)O)NC(=O)[C@H](CC(C)C)NC(=O)C(C)(C)NC(=O)[C@@H](NC(=O)[C@H](CO)NC(=O)[C@H](CC(C)C)NC(=O)[C@H](CC(=O)O)NC(=O)[C@H](CO)NC(=O)[C@@H](NC(=O)[C@H](Cc1ccccc1)NC(=O)[C@@H](NC(=O)CNC(=O)[C@H](CCC(=O)O)NC(=O)C(C)(C)NC(=O)[C@@H](N)Cc1ccc(O)cc1)[C@@H](C)O)[C@@H](C)CC)[C@@H](C)CC)C(=O)N[C@@H](CCCCNC(=O)COCCOCCNC(=O)COCCOCCNC(=O)CC[C@H](NC(=O)CCCCCCCCCCCCCCCCC(=O)O)C(=O)O)C(=O)N[C@@H](CCC(N)=O)C(=O)NC(C)(C)C(=O)N[C@@H](CCC(=O)O)C(=O)N[C@@H](Cc1ccccc1)C(=O)N[C@H](C(=O)N[C@@H](CCC(=O)O)C(=O)N[C@@H](Cc1c[nH]c2ccccc12)C(=O)N[C@@H](CC(C)C)C(=O)N[C@@H](CC(C)C)C(=O)N[C@@H](C)C(=O)N[C@@H](CCC(N)=O)C(=O)NCC(=O)N1CCC[C@H]1C(=O)N[C@@H](CO)C(=O)N[C@@H](CO)C(=O)NCC(=O)N[C@@H](C)C(=O)N1CCC[C@H]1C(=O)N1CCC[C@H]1C(=O)N1CCC[C@H]1C(=O)N[C@@H](CO)C(N)=O)[C@@H](C)CC [SEQ ID NO: 37, H2N-Y-Aib-E-G-T-F-I-S-D-L-S-I-Aib-L-D-R-I-K[{AEEA}2-gGlu-C18OH]-Q-Aib-E-F-I-E-W-L-L-A-Q-G-P-S-S-G-A-P-P-P-S-NH2] (H-Y[Aib]EGTFISDLSI[Aib]LDRIK([AEEA-AEEA-γGlu-C18 diacid])Q[Aib]EFIEWLLAQGPSSGAPPPS-NH2)	9.30									< 8.00	113	10.00								
